We go through 18 compounds from US11554171B2, “Compounds and methods for the targeted degradation of bromodomain-containing proteins” (Arvinas Operations, Inc., priority 2015, dated 2023).

A value given as a limit tells only on which side of the number the result lay.

In general, DC50 refers to the midpoint of the concentration-degradation curve.

This assay has as its system c-myc in 22RV-1 cells. The assay can be described thus: Human c-myc ELISA assay. The following applies: Homo sapiens; for Emax: 22Rv1, 18 h, read-out: Degradation of BRD4: Maximum inhibition (%) c-Myc ELISA in 22RV1 cells; for DC50: 22Rv1, read-out: Degradation of BRD4: DC50 (uM) c-Myc ELISA in 22RV1 cells. In kind it is cell-based. An outline of the steps:
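c-myc levels measured by ELISA in RIPA lysates of 22RV-1 cells, calibrated with a 333-0 pg/ml standard curve. Lysates came from cells exposed for 18 h to an 8-point, 1:3 dose series starting at 300 nM or 1 μM final in 0.1% DMSO. Suppression potency given as DC50.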
A general note: In an ELISA, binding on a coated surface is turned into a signal by an enzyme label.

With `Cc1ncsc1-c1ccc([C@H](C)NC(=O)[C@@H]2C[C@@H](O)CN2C(=O)[C@H](C(C)C)n2cc(-c3cc(F)cc(O[C@H]4C[C@H](NC(=O)C[C@@H]5N=C(c6ccc(Cl)cc6)c6c(sc(C)c6C)-n6c(C)nnc65)C4)c3)cn2)cc1` [Example 254], the Emax was 95.4% and the DC50 is under 0.01 µM.

For `Cc1ncsc1-c1ccc(CNC(=O)[C@@H]2C[C@@H](O)CN2C(=O)[C@@H](NC(=O)COCCO[C@H]2C[C@@H](NC(=O)C[C@@H]3N=C(c4ccc(Cl)cc4)c4c(sc(C)c4C)-n4c(C)nnc43)C2)C(C)(C)C)cc1` [Example 138], the Emax turned out to be 89.4% and the DC50 was 0.1 to 1 µM.

As to `Cc1ncsc1-c1ccc([C@H](C)NC(=O)[C@@H]2C[C@@H](O)CN2C(=O)[C@@H](NC(=O)CCc2ccc(O[C@H]3C[C@H](NC(=O)C[C@@H]4N=C(c5ccc(Cl)cc5)c5c(sc(C)c5C)-n5c(C)nnc54)C3)nc2)C(C)(C)C)cc1` [Example 172], the Emax was 96% and the DC50 is under 0.01 µM.

As to `Cc1ncsc1-c1ccc(CNC(=O)[C@@H]2C[C@@H](O)CN2C(=O)[C@@H](NC(=O)COCCCOCCCOc2ccc(C3(NC(=O)C[C@@H]4N=C(c5ccc(Cl)cc5)c5c(sc(C)c5C)-n5c(C)nnc54)CC3)cc2)C(C)(C)C)cc1` [Example 27, (2S,4R)-1-[(2S)-2-[2-(3-{3-[4-(1-{2-[(9S)-7-(4-chlorophenyl)-4,5,13-trimethyl-3-thia-1,8,11,12-tetraazatricyclo[8.3.0.0^2,^6]trideca-2(6),4,7,10,12-pentaen-9-yl]acetamido}cyclopropyl)phenoxy]propoxy}propoxy)acetamido]-3,3-dimethylbutanoyl]-4-hydroxy-N-{[4-(4-methyl-1,3-thiazol-5-yl)phenyl]methyl}pyrrolidine-2-carboxamide], the Emax came out at 100% and the DC50 was 0.01 to 0.1 µM.

Turning to `Cc1ncsc1-c1ccc(CNC(=O)[C@@H]2C[C@@H](O)CN2C(=O)[C@@H](C(C)C)n2cc(-c3ccnc(O[C@@H](C)CNC(=O)C[C@@H]4N=C(c5ccc(Cl)cc5)c5c(sc(C)c5C)-n5c(C)nnc54)c3)cn2)cc1` [Example 179], the Emax was 13.9% and the DC50 is over 1 µM.

In the case of `Cc1ncsc1-c1ccc([C@H](C)NC(=O)[C@@H]2C[C@@H](O)CN2C(=O)[C@@H](NC(=O)COCCOCCCOc2ccc([C@H](C)NC(=O)C[C@@H]3N=C(c4ccc(Cl)cc4)c4c(sc(C)c4C)-n4c(C)nnc43)cc2)C(C)(C)C)cc1` [Example 34], the Emax worked out at 99.7% and the DC50 fell in the range of 0.01 to 0.1 µM.

Take `Cc1ncsc1-c1ccc([C@H](C)NC(=O)[C@@H]2C[C@@H](O)CN2C(=O)[C@H](C(C)C)n2cc(-c3cc(F)cc(OCCNC(=O)C[C@@H]4N=C(c5ccc(Cl)cc5)c5c(sc(C)c5C)-n5c(C)nnc54)c3)cn2)cc1` [Example 224]: the Emax turned out to be 100% and the DC50 was under 0.01 µM.

On to `Cc1ncsc1-c1ccc([C@H](C)NC(=O)[C@@H]2C[C@@H](O)CN2C(=O)[C@@H](NC(=O)CCc2ccc(O[C@H]3C[C@@H](NC(=O)C[C@@H]4N=C(c5ccc(Cl)cc5)c5c(sc(C)c5C)-n5c(C)nnc54)C3)nc2)C(C)(C)C)cc1` [Example 171], for which the Emax was 97% and the DC50 is under 0.01 µM.

Take `Cc1ncsc1-c1ccc([C@H](C)NC(=O)[C@@H]2C[C@@H](OC(=O)CCN)CN2C(=O)[C@@H](NC(=O)c2cc3cc(O[C@H]4C[C@@H](NC(=O)C[C@@H]5N=C(c6ccc(Cl)cc6)c6c(sc(C)c6C)-n6c(C)nnc65)C4)ccc3o2)C(C)(C)C)cc1` [Example 339]: the Emax was determined as 97% and the DC50 was under 0.01 µM.

Turning to `Cc1ncsc1-c1ccc(CNC(=O)[C@@H]2C[C@@H](O)CN2C(=O)[C@@H](C(C)C)n2cc(Oc3ccc(CNC(=O)C[C@@H]4N=C(c5ccc(Cl)cc5)c5c(sc(C)c5C)-n5c(C)nnc54)cc3)cn2)cc1` [Example 237], the Emax stood at 13.8% and the DC50 was over 1 µM.

As for `Cc1ncsc1-c1ccc(CNC(=O)[C@@H]2C[C@@H](O)CN2C(=O)[C@@H](NC(=O)COCCCOCCNC(=O)CC2N=C(c3ccc(Cl)cc3)c3c(sc(C)c3C)-n3c(C)nnc32)C(C)(C)C)cc1` (stereo partly drawn) [Example 105], the Emax is 97% and the DC50 lay in the range of 0.01 to 0.1 µM.

For `Cc1ncsc1-c1ccc([C@H](C)NC(=O)[C@@H]2C[C@@H](O)CN2C(=O)[C@@H](NC(=O)Cc2ccc(O[C@H]3C[C@H](NC(=O)C[C@@H]4N=C(c5ccc(Cl)cc5)c5c(sc(C)c5C)-n5c(C)nnc54)C3)cc2)C(C)(C)C)cc1` [Example 193, (2S,4R)-1-[(2S)-3,3-dimethyl-2-(2-{4-[(1,3trans)-3-{2-[(9S)-7-(4-chlorophenyl)-4,5,13-trimethyl-3-thia-1,8,11,12-tetraazatricyclo[8.3.0.0^2,^6]trideca-2(6),4,7,10,12-pentaen-9-yl]acetamido}cyclobutoxy]phenyl}acetamido)butanoyl]-4-hydroxy-N-[(1S)-1-[4-(4-methyl-1,3-thiazol-5-yl)phenyl]ethyl]pyrrolidine-2-carboxamide], the Emax worked out at 100% and the 50% degradation concentration (DC50) was under 0.01 µM.

Take `Cc1ncsc1-c1ccc([C@H](C)NC(=O)[C@@H]2C[C@@H](O)CN2C(=O)[C@@H](C(C)C)n2cc(-c3cc(F)cc(OCCNC(=O)C[C@@H]4N=C(c5ccc(Cl)cc5)c5c(sc(C)c5C)-n5c(C)nnc54)c3)cn2)cc1` [Example 223]: the Emax was found to be 79% and the DC50 fell in the range of 0.1 to 1 µM.

As for `Cc1ncsc1-c1ccc(CNC(=O)[C@@H]2C[C@@H](O)CN2C(=O)[C@@H](C(C)C)n2cc(-c3cccc(O[C@@H](C)CNC(=O)C[C@@H]4N=C(c5ccc(Cl)cc5)c5c(sc(C)c5C)-n5c(C)nnc54)c3)cn2)cc1` [Example 198], the Emax came out at 16% and the half-maximal degradation concentration (DC50) is over 1 µM.

`Cc1ncsc1-c1ccc(CNC(=O)[C@@H]2C[C@@H](O)CN2C(=O)[C@H](c2cc(OCCN3CC[C@H](NC(=O)C[C@@H]4N=C(c5ccc(Cl)cc5)c5c(sc(C)c5C)-n5c(C)nnc54)C3)no2)C(C)C)cc1` [Example 309]: the Emax was determined as 18% and the DC50 is over 1 µM.

`Cc1ncsc1-c1ccc(CNC(=O)[C@@H]2C[C@@H](O)CN2C(=O)[C@H](c2cc(OCCN3CCC(NC(=O)C[C@@H]4N=C(c5ccc(Cl)cc5)c5c(sc(C)c5C)-n5c(C)nnc54)CC3)no2)C(C)C)cc1` [Example 315]: the Emax came out at 11.4% and the DC50 was over 1 µM.

For the compound `Cc1ncsc1-c1ccc([C@H](C)NC(=O)[C@@H]2C[C@@H](O)CN2C(=O)[C@@H](NC(=O)c2cc3cc(O[C@@H](C)CNC(=O)C[C@@H]4N=C(c5ccc(Cl)cc5)c5c(sc(C)c5C)-n5c(C)nnc54)ccc3o2)C(C)(C)C)cc1` [Example 205, (2S,4R)-1-[(2S)-2-[(5-{[(2S)-1-{2-[(9S)-7-(4-chlorophenyl)-4,5,13-trimethyl-3-thia-1,8,11,12-tetraazatricyclo[8.3.0.0^2,^6]trideca-2(6),4,7,10,12-pentaen-9-yl]acetamido}propan-2-yl]oxy}-1-benzofuran-2-yl)formamido]-3,3-dimethylbutanoyl]-4-hydroxy-N-[(1S)-1-[4-(4-methyl-1,3-thiazol-5-yl)phenyl]ethyl]pyrrolidine-2-carboxamide], the Emax amounted to 91% and the DC50 is under 0.01 µM.

In the case of `Cc1ncsc1-c1ccc([C@H](C)NC(=O)[C@@H]2C[C@@H](O)CN2C(=O)[C@@H](C(C)C)n2cc(-c3ccc(N4CC(NC(=O)C[C@@H]5N=C(c6ccc(Cl)cc6)c6c(sc(C)c6C)-n6c(C)nnc65)C4)nc3)cn2)cc1` [Example 255], the Emax worked out at 35.5% and the DC50 was over 1 µM.
